Five compounds from patent publication US8076327B2, “Condensed imidazole derivatives as aldosterone synthase inhibitors” (Novartis AG, priority 2006, dated 2011) can be followed below.

Test [1] deals with T1, recombinant human Cyp19 enzyme (Homo sapiens, UniProt P11511).
T1 construct: purchased Becton Dickinson Biosciences, San Jose, Calif., USA
T1 sequence (P11511 1-503): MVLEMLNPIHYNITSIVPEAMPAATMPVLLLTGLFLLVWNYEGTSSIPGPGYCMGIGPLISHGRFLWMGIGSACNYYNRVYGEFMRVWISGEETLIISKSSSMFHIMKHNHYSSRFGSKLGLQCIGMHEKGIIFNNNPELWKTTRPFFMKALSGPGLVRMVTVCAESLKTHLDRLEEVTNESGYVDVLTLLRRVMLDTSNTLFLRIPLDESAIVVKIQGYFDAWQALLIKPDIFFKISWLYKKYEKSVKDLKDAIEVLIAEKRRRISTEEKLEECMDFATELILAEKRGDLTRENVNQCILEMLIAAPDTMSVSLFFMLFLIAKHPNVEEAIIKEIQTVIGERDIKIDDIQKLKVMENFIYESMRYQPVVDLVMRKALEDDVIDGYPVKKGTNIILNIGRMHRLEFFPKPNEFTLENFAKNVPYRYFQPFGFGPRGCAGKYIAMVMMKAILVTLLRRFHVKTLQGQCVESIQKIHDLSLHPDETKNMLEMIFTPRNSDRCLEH
Description: Cyp19/MFC high throughput enzyme inhibition kit (aromatase). Format: biochemical. On the procedure: The compounds of the formula (Ia) have at least one asymmetric carbon atom, which is labelled “*”. A compound of the formula (Ia) is to be understood as a compound having a specific configuration around the designated asymmetric carbon atom. If a synthesis method is used which leads to racemic compounds, the racemate resolution is carried out in accordance with conventional methods, such as via a chiral HPLC column. […] The aforementioned aromatase inhibitory activity can, as the skilled worker is well aware and as described below, be comfortably determined using the commercial Cyp19 enzyme inhibition kit, preferably the Cyp19/methoxy-4-trifluoromethyl-coumarin (MFC) high throughput inhibition kit (Becton Dickinson Biosciences, San Jose, Calif., USA) as described hereafter. In the abovementioned inhibition kit, compounds of the formula (Ia) have an activity which is at least 10 times lower preferably 20 times lower, but more preferably 40 times lower than the compounds of the formula (Ia) with the opposite configuration around the asymmetric carbon atom labelled “*”. A lower inhibiting activity corresponds to a higher IC50 value.
The Cyp19/methoxy-4-trifluoromethyl-coumarin (MFC) high throughput inhibition kit (Becton Dickinson Biosciences, San Jose, Calif., USA), for example, is designed to screen for potential inhibitors of Cyp19 catalytic activity in a 96-well format. […]

In test [2] the test system is plasma aldosterone levels. As to the kind of experiment: Suppression of plasma aldosterone in ACTH-stimulated rats. Type of test: in vivo, Wistar rats. The note with it: 4 mg/kg p.o.; plasma level 2 h after dosing relative to 1 h prior to dosing; rat. On the procedure:
(§1) The aldosterone- and corticosterone-suppressing activity of herein described compounds may be assessed with the following in vivo protocol.
(§2) Adult male Wistar rats weighing between 250 and 350 grams are kept under the usual 12-hour light and 12-hour dark conditions at a temperature of 23° C.±2° C. On the first day of the experiment, the animals receive a subcutaneous injection of a depot ACTH product in a dose of 1.0 mg/kg weight (SYNACTHEN-Depot, Novartis, Basel, CH) 16 hours prior to the administration of a test compound. […] An alternative method to stimulate aldosterone secretion consists in subjecting rats to a low salt diet for 48 hours and applying the diuretic furosemide at 10 mg/kg by subcutaneous or intraperitoneal administration 16 hours, respectively 2 hours prior to the start of the experiment. On the second day of the experiment, the animals are divided into test groups of 5 animals and subjected to a first bleed 1 hour prior to the administration of test compound. Subsequently, and 16 hours after the injection of the ACTH product, the animals receive either vehicle or test compound dissolved in vehicle in a variable dose range from 0.02 to 20 mg/kg by oral gavage. The animals are bled two more times from the vena subclavia under isoflurane anaesthesia 2 and 6 hours after dosing. The blood is collected in heparin-treated tubes. The plasma samples are obtained by centrifugation and stored at −20° C. An alternative method to bleed animals time-dependently consists in using animals that are chronically carotid catheterized which allows the periodical sampling of up to 0.2 ml of blood using an AccuSampler (DiLab Europe, Lund, Sweden). The blood sampling with the AccuSampler may occur 1 hour prior to the administration of a test compound and 2, 4, 6, 8, 12, 16 and 24 hours thereafter. The blood samples are anticoagulated with heparin and centrifuged. The aldosterone and corticosterone concentrations of the plasma samples can be determined with a radioimmunoassay as described above for the in vitro test systems.
(§3) The selective suppression of plasma steroid levels as for instance aldosterone in comparison to corticosterone may serve as a measure for in vivo bioavailability and pharmacodynamic enzyme inhibitory activity of the herein described compounds. The evaluation of the data may occur relative to the application of vehicle or quantitatively by determination of the area under the curve (AUC).

Test [3] concerns plasma corticosterone levels. Description: Suppression of plasma corticosterone in ACTH-stimulated rats. The conditions noted are these: 4 mg/kg p.o.; plasma level 2 h after dosing relative to 1 h prior to dosing; rat. Type of test: in vivo, Wistar rats. On the procedure: as §1, §2, §3

SMILES strings stand for the structures.

In general, IC50 refers to the concentration needed to halve the response being measured.

Turning to `N#Cc1ccc(C2OCCn3cncc32)cc1` (racemic) [antipode of 24, 4-(5,6-Dihydro-8H-imidazo[5,1-c][1,4]oxazin-8-yl)benzonitrile], the IC50 in test [1] was determined as 7.1 nM.

With `CC(=O)c1ccc(C2OCCn3cncc32)cc1` (stereo not drawn) [Example 18, 1-[4-(5,6-Dihydro-8H-imidazo[5,1-c][1,4]oxazin-8-yl)phenyl]ethanone], the “Aldosterone levels (% change at 2 h)” value in test [2] was −33%. Also, in test [3], the “Corticosterone levels (% change at 2 h)” value is listed as 4%.

Take `N#Cc1cccc(C2OCCn3cncc32)c1` (stereo not drawn) [Example 19, 3-(5,6-Dihydro-8H-imidazo[5,1-c][1,4]oxazin-8-yl)benzonitrile]: the “Aldosterone levels (% change at 2 h)” value in test [2] was −65%. Further, the “Corticosterone levels (% change at 2 h)” value in test [3] stood at 1.7%.

Regarding `CC1(c2ccc(C#N)cc2)SCCn2cncc21` (stereo not drawn) [Example 4, 4-(8-Methyl-5,6-dihydro-8H-imidazo[5,1-c][1,4]thiazin-8-yl)-benzonitrile], the “Aldosterone levels (% change at 2 h)” value in test [2] is −19%. Besides, the “Corticosterone levels (% change at 2 h)” value in test [3] is listed as −10%.

Turning to `N#Cc1ccc(C2SCCn3cncc32)cc1` (stereo not drawn) [Example 2, 4-(5,6-Dihydro-8H-imidazo[5,1-c][1,4]thiazin-8-yl)benzonitrile], the “Aldosterone levels (% change at 2 h)” value in test [2] was −56%. Moreover, the “Corticosterone levels (% change at 2 h)” value in test [3] was −22%.
